Results from patent EP4740948A1 (Dong Wha Pharm. Co., Ltd., priority 2023, dated 2025).
Where a name gives a salt, the structure may show the parent alone.

Legend:
Lovo cells = test: Cancer cell proliferation inhibition (Cell Counting Kit-8), colorectal cancer cell line; assay type: cell-based; settings: 1000 nM, cultured seven to 11 days; for inhibition at 1 µM: Homo sapiens, LoVo, 264 h, read-out: % inhibition rate LoVo
In short: (§1)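 CCK-8 readout after 7–11 day culture with 1000 nM compound; seeding 100–1,000 cells/well in 10% FBS medium (RPMI1640, McCoy's 5a, L-15 or DMEM). % inhibition vs untreated control.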

NCI-H1299 cells = test: Cancer cell proliferation inhibition (Cell Counting Kit-8), lung cancer cell line; assay type: cell-based; settings: Homo sapiens, NCI-H1299, 264 h, 1000 nM, cultured seven to 11 days; read-out: % inhibition rate NCI-H129 9
In short: as §1

MKN-45 cells = test: Cancer cell proliferation inhibition (Cell Counting Kit-8), gastric cancer cell line; assay type: cell-based; settings: Homo sapiens, MKN-45, 264 h, 1000 nM, cultured seven to 11 days; read-out: % inhibition rate MKN -45
In short: (§2)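 Single 1000 nM dose of test substance, applied to cells seeded at 100–1,000 per well in 10% FBS medium, then culture for seven to 11 days. CCK-8 read-out; inhibition rate expressed as percent relative to untreated control.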

EZH1 = EZH1 (Homo sapiens, UniProt Q92800); test: AlphaLISA enzyme activity inhibition, EZH1; assay type: biochemical; settings: for inhibition at 0.005 µM: 5nM test substance; for inhibition at 0.01 µM: 10nM test substance
EZH1, sequence (Q92800 whole entry, species assumed): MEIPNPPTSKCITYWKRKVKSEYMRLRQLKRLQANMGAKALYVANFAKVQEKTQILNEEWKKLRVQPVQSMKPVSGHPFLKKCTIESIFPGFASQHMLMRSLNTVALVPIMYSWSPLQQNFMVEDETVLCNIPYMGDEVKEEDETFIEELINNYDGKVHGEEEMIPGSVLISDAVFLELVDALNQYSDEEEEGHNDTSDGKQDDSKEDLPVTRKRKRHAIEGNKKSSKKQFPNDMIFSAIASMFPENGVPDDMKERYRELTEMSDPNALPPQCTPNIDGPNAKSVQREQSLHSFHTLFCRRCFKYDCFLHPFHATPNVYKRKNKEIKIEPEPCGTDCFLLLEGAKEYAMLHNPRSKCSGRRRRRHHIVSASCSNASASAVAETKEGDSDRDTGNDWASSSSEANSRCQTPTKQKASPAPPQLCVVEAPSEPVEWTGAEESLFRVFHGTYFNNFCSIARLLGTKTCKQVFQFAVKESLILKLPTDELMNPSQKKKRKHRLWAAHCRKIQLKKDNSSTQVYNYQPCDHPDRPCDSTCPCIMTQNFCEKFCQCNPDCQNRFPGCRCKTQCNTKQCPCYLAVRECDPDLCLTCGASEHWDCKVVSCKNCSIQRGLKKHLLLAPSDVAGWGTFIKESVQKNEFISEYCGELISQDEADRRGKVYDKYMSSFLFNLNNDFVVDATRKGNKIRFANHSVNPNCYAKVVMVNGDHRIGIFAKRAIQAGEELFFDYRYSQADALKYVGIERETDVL
EZH1, sequence (O75530 whole entry partner, species assumed): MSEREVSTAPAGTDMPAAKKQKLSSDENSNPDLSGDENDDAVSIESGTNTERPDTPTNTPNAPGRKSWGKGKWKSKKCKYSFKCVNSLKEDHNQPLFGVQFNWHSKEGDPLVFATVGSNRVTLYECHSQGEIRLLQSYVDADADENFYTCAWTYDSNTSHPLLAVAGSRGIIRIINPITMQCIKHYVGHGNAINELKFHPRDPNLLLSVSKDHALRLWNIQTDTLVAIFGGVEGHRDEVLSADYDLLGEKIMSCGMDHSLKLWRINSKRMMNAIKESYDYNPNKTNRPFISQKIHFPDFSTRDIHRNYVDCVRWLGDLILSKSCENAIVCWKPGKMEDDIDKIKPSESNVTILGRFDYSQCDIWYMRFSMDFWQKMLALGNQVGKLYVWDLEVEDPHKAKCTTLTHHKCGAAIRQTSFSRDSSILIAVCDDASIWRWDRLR
EZH1, sequence (Q15022 whole entry partner, species assumed): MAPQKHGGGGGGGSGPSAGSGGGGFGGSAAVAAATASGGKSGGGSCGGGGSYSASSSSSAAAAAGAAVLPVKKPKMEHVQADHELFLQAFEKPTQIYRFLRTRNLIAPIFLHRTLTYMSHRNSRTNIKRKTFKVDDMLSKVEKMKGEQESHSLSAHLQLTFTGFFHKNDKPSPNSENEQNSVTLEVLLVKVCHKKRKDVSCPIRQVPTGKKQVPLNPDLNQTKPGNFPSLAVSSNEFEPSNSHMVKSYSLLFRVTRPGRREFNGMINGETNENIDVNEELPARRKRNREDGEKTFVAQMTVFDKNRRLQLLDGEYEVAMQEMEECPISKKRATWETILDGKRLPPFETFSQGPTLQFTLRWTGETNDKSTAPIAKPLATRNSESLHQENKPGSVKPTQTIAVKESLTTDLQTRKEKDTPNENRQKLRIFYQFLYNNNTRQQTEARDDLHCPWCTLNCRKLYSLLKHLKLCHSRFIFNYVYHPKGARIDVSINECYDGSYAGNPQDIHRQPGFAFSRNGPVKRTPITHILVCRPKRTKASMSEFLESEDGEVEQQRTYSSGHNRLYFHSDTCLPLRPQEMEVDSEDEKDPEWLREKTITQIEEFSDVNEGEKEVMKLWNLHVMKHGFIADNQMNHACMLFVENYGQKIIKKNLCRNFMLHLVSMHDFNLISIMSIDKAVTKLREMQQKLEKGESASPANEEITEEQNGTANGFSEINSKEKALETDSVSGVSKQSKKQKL
Protocol: (§3) In order to confirm the EZH1 and/or EZH2 activity inhibitory effect of the 1,3-benzodioxole derivative compounds represented by chemical formula I of the present invention, the activity was measured using an AlphaLISA test method. The test substance dissolved in dimethylsulfoxide (DMSO) was diluted in a test solution (20 mM Tris pH 8.0, 0.1% BSA, 0.01% Triton X-100, 0.5 mM DTT) according to a final treatment concentration (5 nM or 10 nM) and mixed with EZH1 and EZH2, respectively, and then histone H3 peptide and S-adenosylmethionine (SAM) were added to initiate an enzyme reaction. An acceptor bead was added thereto after reaction for two hours and subjected to an additional reaction for one hour, after which a donor bead was added thereto. After an additional reaction for 30 minutes, the reaction was completed. An activity was measured using the Magellan program on a Spark10M instrument. DMSO was used as a control group, an inhibition rate of enzyme activity was calculated using a following equation, and the results thereof are shown in Table 1 below. [formula]

SW-13 cells = test: Cancer cell proliferation inhibition (Cell Counting Kit-8), adrenal cancer cell line; assay type: cell-based; settings: Homo sapiens, SW13, 264 h, 1000 nM, cultured seven to 11 days; read-out: % inhibition rate SW-13
In short: as §1

G401 cells = test: Cancer cell proliferation inhibition (Cell Counting Kit-8), rhabdoid tumor cell line; assay type: cell-based; settings: 1000 nM, cultured seven to 11 days; for inhibition at 1 µM: Homo sapiens, G-401, 264 h, read-out: % inhibition rate G401; for % inhibition rate G401: 1 µM
In short: as §2

MIA-PaCa-2 cells = test: Cancer cell proliferation inhibition (Cell Counting Kit-8), pancreatic cancer cell line; assay type: cell-based; settings: Homo sapiens, MIA PaCa-2, 264 h, 1000 nM, cultured seven to 11 days; read-out: % inhibition rate MIA-Paca2
In short: as §1

EZH2 = EZH2 (Homo sapiens, UniProt Q15910); test: AlphaLISA enzyme activity inhibition, EZH2; assay type: biochemical; settings: for inhibition at 0.01 µM: 10nM test substance
EZH2, sequence (Q15910 whole entry, species assumed): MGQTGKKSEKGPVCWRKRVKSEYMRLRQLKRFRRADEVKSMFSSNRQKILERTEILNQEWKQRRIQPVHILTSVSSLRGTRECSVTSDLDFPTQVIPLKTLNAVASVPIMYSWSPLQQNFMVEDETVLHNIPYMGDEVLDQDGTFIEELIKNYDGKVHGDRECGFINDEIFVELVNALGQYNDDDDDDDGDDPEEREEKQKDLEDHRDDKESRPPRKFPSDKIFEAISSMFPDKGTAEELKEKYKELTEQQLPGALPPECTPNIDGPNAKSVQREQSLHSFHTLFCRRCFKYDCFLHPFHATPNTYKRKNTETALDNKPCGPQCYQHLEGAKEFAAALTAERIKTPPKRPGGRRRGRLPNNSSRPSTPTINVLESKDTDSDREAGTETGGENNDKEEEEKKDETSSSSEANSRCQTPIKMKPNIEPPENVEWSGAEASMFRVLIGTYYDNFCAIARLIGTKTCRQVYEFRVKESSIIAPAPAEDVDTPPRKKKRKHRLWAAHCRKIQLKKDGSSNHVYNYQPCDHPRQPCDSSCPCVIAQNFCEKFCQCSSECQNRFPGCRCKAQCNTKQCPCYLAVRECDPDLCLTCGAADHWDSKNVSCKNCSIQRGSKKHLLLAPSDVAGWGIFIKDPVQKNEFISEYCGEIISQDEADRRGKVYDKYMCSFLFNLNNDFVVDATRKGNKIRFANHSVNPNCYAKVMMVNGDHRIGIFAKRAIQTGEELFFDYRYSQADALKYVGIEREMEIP
EZH2, sequence (O75530 whole entry partner, species assumed): as the sequence (O75530 whole entry partner, species assumed) above
EZH2, sequence (Q15022 whole entry partner, species assumed): as the sequence (Q15022 whole entry partner, species assumed) above
Protocol: as §3

SMILES | inhibition at 0.005 µM (EZH1) [%] | inhibition at 0.01 µM (EZH1) [%] | inhibition at 0.005 µM (EZH2; 5nM test substance) [%] | inhibition at 0.01 µM (EZH2) [%] | Enzyme inhibition % EZH2 (EZH2; 5nM test substance, 0.005 µM) [%] | inhibition at 1 µM (Lovo cells) [%] | inhibition at 1 µM (NCI-H1299 cells) [%] | inhibition at 1 µM (MKN-45 cells) [%] | inhibition at 1 µM (SW-13 cells) [%] | inhibition at 1 µM (G401 cells) [%] | inhibition at 1 µM (MIA-PaCa-2 cells) [%] | % inhibition rate LoVo (Lovo cells; 1 µM) | % inhibition rate G401 (G401 cells)
CSc1cc(C)[nH]c(=O)c1CNC(=O)c1cc(-c2ccc(N3CCCCC3)nc2)c2c(c1C)OC(C)(C1CCN(CC(F)(F)F)CC1)O2 (stereo not drawn) [Compound 91, 2,4-dimethyl-N-((6-methyl-4-(methylthio)-2-oxo-1,2-dihydropyridin-3-yl)methyl)-7-(6-(piperidin-1-yl)pyridin-3-yl)-2-(1-(2,2,2-trifluoroethyl)piperidin-4-yl)benzo[d][1,3]dioxole-5-carboxamide] | 24.5 | 41 | 47.4 | 71.6 | – | ≥ 70 | ≤ 30 | ≤ 30 | ≤ 30 | 30 to 70 | ≤ 30 | – | –
CSc1cc(C)[nH]c(=O)c1CNC(=O)c1cc(-c2ccc3c(c2)OC(F)(F)O3)c2c(c1C)OC(C)(C1CCN(CC(F)(F)F)CC1)O2 (stereo not drawn) [Compound 93, 2',2'-difluoro-2,7-dimethyl-N-((6-methyl-4-(methylthio)-2-oxo-1,2-dihydropyridin-3-yl)methyl)-2-(1-(2,2,2-trifluoroethyl)piperidin-4-yl)-[4,5'-bibenzo[d][1,3]dioxole]-6-carboxamide] | 16.8 | 12.7 | 32.2 | 37.9 | – | ≥ 70 | ≤ 30 | ≤ 30 | 30 to 70 | ≤ 30 | ≤ 30 | – | –
CCN1CCC(C2(C)Oc3c(-c4ccc(N5CCOCC5)nc4)cc(C(=O)NCc4c(SC)cc(C)[nH]c4=O)c(C)c3O2)CC1 (single isomer, unassigned) [Compound 66, 2-(1-ethylpiperidin-4-yl)-2,4-dimethyl-N-((6-methyl-4-(methylthio)-2-oxo-1,2-dihydropyridin-3-yl)methyl)-7-(6-morpholinopyridin-3-yl)benzo[d][1,3]dioxole-5-carboxamide] | 81.3 | 90.9 | 99.3 | 99.6 | – | 30 to 70 | ≤ 30 | 30 to 70 | ≤ 30 | – | ≤ 30 | – | +++ (+++: ≥70%)
CSc1cc(C)[nH]c(=O)c1CNC(=O)c1cc(-c2ccc(N3CCSCC3)nc2)c2c(c1C)OC(C)([C@H]1CC[C@H](N(C)C)CC1)O2 (relative stereo) [Compound 17, 2-(trans-4-(dimethylamino)cyclohexyl)-2,4-dimethyl-N-((6-methyl-4-(methylthio)-2-oxo-1,2-dihydropyridin-3-yl)methyl)-7-(6-thiomorpholinopyridin-3-yl)benzo[d][1,3]dioxole-5-carboxamide] | 93.8 | – | 99.3 | – | – | ≥ 70 | 30 to 70 | ≤ 30 | 30 to 70 | 30 to 70 | ≤ 30 | – | –
CSc1cc(C)[nH]c(=O)c1CNC(=O)c1cc(-c2ccc(N3CCOCC3)cc2)c2c(c1C)OC(C)([C@H]1CC[C@H](N(C)C)CC1)O2 (relative stereo) [Compound 9, 2-(trans-4-(dimethylamino)cyclohexyl)-2,4-dimethyl-N-((6-methyl-4-(methylthio)-2-oxo-1,2-dihydropyridin-3-yl)methyl)-7-(4-morpholinophenyl)benzo[d][1,3]dioxole-5-carboxamide] | 86.1 | – | 98.6 | – | – | 30 to 70 | ≤ 30 | ≤ 30 | 30 to 70 | 30 to 70 | ≤ 30 | – | –

Now from value to molecule, other results behind:

inhibition at 0.005 µM (EZH1) [%] | inhibition at 0.01 µM (EZH1) [%] | inhibition at 0.005 µM (EZH2; 5nM test substance) [%] | inhibition at 0.01 µM (EZH2) [%] | Enzyme inhibition % EZH2 (EZH2; 5nM test substance, 0.005 µM) [%] | SMILES | inhibition at 1 µM (Lovo cells) [%] | inhibition at 1 µM (NCI-H1299 cells) [%] | inhibition at 1 µM (MKN-45 cells) [%] | inhibition at 1 µM (SW-13 cells) [%] | inhibition at 1 µM (G401 cells) [%] | inhibition at 1 µM (MIA-PaCa-2 cells) [%] | % inhibition rate LoVo (Lovo cells; 1 µM) | % inhibition rate G401 (G401 cells)
37.6 | – | 59.1 | – | – | CSc1cc(C)[nH]c(=O)c1CNC(=O)c1cc(-c2ccc(N3C[C@@H](C)O[C@@H](C)C3)nc2)c2c(c1C)OC(C)(C1CCN(CC(F)(F)F)CC1)O2 (stereo partly drawn) [Compound 33, 7-(6-((2S,6R)-2,6-dimethylmorpholino)pyridin-3-yl)-2,4-dimethyl-N-((6-methyl-4-(methylthio)-2-oxo-1,2-dihydropyridin-3-yl)methyl)-2-(1-(2,2,2-trifluoroethyl)piperidin-4-yl)benzo[d][1,3]dioxole-5-carboxamide] | ≥ 70 | ≤ 30 | 30 to 70 | 30 to 70 | ≥ 70 | ≤ 30 | – | –
46.8 | 78.2 | 96.1 | 99.6 | – | CSc1cc(C)[nH]c(=O)c1CNC(=O)c1cc(-c2ccc(N3C[C@@H](C)O[C@@H](C)C3)nc2)c2c(c1C)OC(C)(C1CCN(CC(F)(F)F)CC1)O2 (single isomer, unassigned) [Compound 44] | – | 30 to 70 | 30 to 70 | 30 to 70 | – | ≤ 30 | +++ (+++: ≥70%) | +++ (+++: ≥70%)
30 | 68.1 | 96.3 | 100 | – | CSc1cc(C)[nH]c(=O)c1CNC(=O)c1cc(-c2ccc(N3C[C@@H](C)O[C@@H](C)C3)nc2)c2c(c1C)OC(C)([C@H]1CC[C@H](N)CC1)O2 (stereo partly drawn) [Compound 100, 2-(trans-4-aminocyclohexyl)-7-(6-((2S,6R)-2,6-dimethylmorpholino)pyridin-3-yl)-2,4-dimethyl-N-((6-methyl-4-(methylthio)-2-oxo-1,2-dihydropyridin-3-yl)methyl)benzo[d][1,3]dioxole-5-carboxamide hydrochloride] | ≤ 30 | ≤ 30 | 30 to 70 | 30 to 70 | ≥ 70 | ≤ 30 | – | –
39.3 | – | – | – | 41.7 | CSc1cc(C)[nH]c(=O)c1CNC(=O)c1cc(-c2ccc(N3C[C@@H](C)O[C@@H](C)C3)nc2)c2c(c1C)OC(C)([C@H]1CC[C@H](N(C)CC(F)(F)F)CC1)O2 (single isomer, unassigned) [Compound 107] | ≥ 70 | ≤ 30 | ≤ 30 | ≤ 30 | – | ≤ 30 | – | +++ (+++: ≥70%)
67.3 | – | 75.6 | – | – | COC(CN(C)[C@H]1CC[C@H](C2(C)Oc3c(-c4ccc(N5C[C@@H](C)O[C@@H](C)C5)nc4)cc(C(=O)NCc4c(SC)cc(C)[nH]c4=O)c(C)c3O2)CC1)OC (stereo partly drawn) [Compound 31, 2-(trans-4-((2,2-dimethoxyethyl)(methyl)amino)cyclohexyl)-7-(6-((2S,6R)-2,6-dimethylmorpholino)pyridin-3-yl)-2,4-dimethyl-N-((6-methyl-4-(methylthio)-2-oxo-1,2-dihydropyridin-3-yl)methyl)benzo[d][1,3]dioxole-5-carboxamide] | ≥ 70 | ≤ 30 | 30 to 70 | 30 to 70 | 30 to 70 | ≤ 30 | – | –
